Laboratory results taken from patent publication US20130123355A1, “Fatty acids and metal ions compositions and uses thereof” (priority 2011, published 2013).

What was measured:
[1] = system: Patients presenting symptoms of bipolar disorder; assay: Hamilton Depression Rating scale, Beck Depression Inventory and Young Mania Rating Scale in bipolar disorder; assay type: in vivo, human; details: 113 mg elemental Li 3 to 4 times a day for two weeks, with standard of care, compared with lithium carbonate or the fatty acid alone
[2] = system: Sprague-Dawley rats; assay: Forced Swim Test; assay type: in vivo; details: diet, about 15.5 mg/Kg/day elemental lithium, compared with the fatty acid alone or lithium carbonate
From the text: Sprague-Dawley rats are fed diet supplemented with Mg-DHA, Mg Citrate, or DHA. […] Various established parameters of antidepressant activity including reduced immobility time, increased swimming, and increased climbing behavior are quantitated to assess the antidepressant activity.
Sprague-Dawley rats are fed diet supplemented with Mg-DHA-LysoPC, Mg Citrate, or DHA-lysoPC. […] Various established parameters of antidepressant activity including reduced immobility time, increased swimming, and increased climbing behavior are quantitated to assess the antidepressant activity.
Sprague-Dawley rats are fed diet supplemented with Mg-EPA, Mg Citrate, or EPA. […] Various established parameters of antidepressant activity including reduced immobility time, increased swimming, and increased climbing behavior are quantitated to assess the antidepressant activity.
Sprague-Dawley rats are fed diet supplemented with Zn-DHA, Zinc gluconate, or DHA. On Zn-DHA or Zinc gluconate supplemented diet, rats consume about 1 mg/kg body weight/day of elemental zinc, on a feeding schedule so as to maintain 85% of its free-feeding weight. […] Various established parameters of antidepressant activity including reduced immobility time, increased swimming, and increased climbing behavior are quantitated to assess the antidepressant activity.
Sprague-Dawley rats are fed diet supplemented with Zn-DHA-lysoPC, zinc gluconate, or DHA. On Zn-DHA-lysoPC or zinc gluconate supplemented diet, rats consume about 1 mg/kg body weight/day of elemental zinc, on a feeding schedule so as to maintain 85% of its free-feeding weight. […] Various established parameters of antidepressant activity including reduced immobility time, increased swimming, and increased climbing behavior are quantitated to assess the antidepressant activity.
Sprague-Dawley rats are fed diet supplemented with Zn-EPA, zinc gluconate, or EPA. On Zn-EPA or zinc gluconate supplemented diet, rats consume about 1 mg/kg body weight/day of elemental zinc, on a feeding schedule so as to maintain 85% of its free-feeding weight. […] Various established parameters of antidepressant activity including reduced immobility time, increased swimming, and increased climbing behavior are quantitated to assess the antidepressant activity.
Sprague-Dawley rats are fed diet supplemented with Li-DHA, lithium carbonate, or DHA. […] Various established parameters of antidepressant activity including reduced immobility time, increased swimming, and increased climbing behavior are quantitated to assess the antidepressant activity.
Sprague-Dawley rats are fed diet supplemented with Li-DHA-lysoPC, lithium carbonate, or DHA. […] Various established parameters of antidepressant activity including reduced immobility time, increased swimming, and increased climbing behavior are quantitated to assess the antidepressant activity.
Sprague-Dawley rats are fed diet supplemented with Li-EPA, lithium carbonate, or EPA. […] Various established parameters of antidepressant activity including reduced immobility time, increased swimming, and increased climbing behavior are quantitated to assess the antidepressant activity.

[3] = Li levels in cerebrospinal fluid of rats fed Li compositions; assay type: in vivo, Sprague-Dawley rats; details: oral gavage, about 20 mg elemental Li per Kg per day for 3 weeks, compared with lithium carbonate
Description: Sprague-Dawley rats are fed various […] compositions by oral gavage so as to provide about 20 mg of elemental Li per Kg per day for 3 weeks. The lithium compositions include Li-DHA, Li-DHA-LysoPC and Li-EPA. Control rats were administered equivalent molar amount of Lithium carbonate. Cerebrospinal fluid is collected at the end of the treatment, and lithium is measured by atomic absorption spectroscopy.

[4] = system: Patients presenting symptoms of depression; assay: Hamilton Depression Rating scale and Beck Depression Inventory in depression; assay type: in vivo, human; details: 113 mg elemental Li 3 to 4 times a day for two weeks, with standard of care, compared with lithium carbonate or the fatty acid alone
Description: Patients presenting symptoms of depression, in addition to being provided standard of care for depression, are prescribed Mg-DHA or Mg Citrate capsules formulated to provide 150 mg of elemental magnesium, or DHA capsules for two weeks when recovery from depression is assessed.
Patients presenting symptoms of depression, in addition to being provided standard of care for depression, are prescribed Mg-DHA-LysoPC or Mg Citrate capsules formulated to provide 150 mg of elemental magnesium, or DHA-LysoPC capsules for two weeks when recovery from depression is assessed.
Patients presenting symptoms of depression, in addition to being provided standard of care for depression, are prescribed Mg-EPA or Mg Citrate capsules formulated to provide 150 mg of elemental magnesium, or EPA capsules for two weeks when recovery from depression is assessed.
Patients presenting symptoms of depression, in addition to being provided standard of care for depression, are prescribed Zn-DHA or zinc gluconate capsules formulated to provide a daily dosage of 30 mg of elemental zinc, or DHA capsules for two weeks when recovery from depression is assessed.
Patients presenting symptoms of depression, in addition to being provided standard of care for depression, are prescribed Zn-DHA-LysoPC or zinc gluconate capsules formulated to provide a daily dosage of 30 mg of elemental zinc, or DHA-LysoPC capsules for two weeks when recovery from depression is assessed.
Patients presenting symptoms of depression, in addition to being provided standard of care for depression, are prescribed Zn-EPA or zinc gluconate capsules that provide a daily dosage of 30 mg of elemental Zn, or EPA capsules for two weeks when recovery from depression is assessed.

[5] = system: C57BL/6J mice; assay: d-amphetamine induced hyperlocomotion, supplemented diet; assay type: in vivo; details: about 15.5 mg/Kg/day elemental lithium, 0.5 mg/Kg d-amphetamine on days 0, 7, 14, 21, compared with the fatty acid alone or lithium chloride
Description: C57BL/6J mice are fed diet supplemented with Li-DHA, lithium chloride, or DHA. On Li-DHA or lithium chloride supplemented diet, mice consume, on an average, about 15.5 mg/Kg/day of elemental lithium, on a feeding schedule so as to maintain 85% of its free-feeding weight. […] On 0, 7, 14, and 21 days of starting the supplement diet, mice are injected with 0.5 mg/Kg d-amphetamine and observed for hyperlocomotion using automated video recording device.
C57BL/6J mice are fed diet supplemented with Li-DHA-lysoPC, lithium chloride, or DHA-lysoPC. On Li-DHA-lysoPC or lithium chloride supplemented diet, mice consume, on an average, about 15.5 mg/Kg/day of elemental lithium, on a feeding schedule so as to maintain 85% of its free-feeding weight. […] On 0, 7, 14, and 21 days of starting the supplement diet, mice are injected with 0.5 mg/Kg d-amphetamine and observed for hyperlocomotion using automated video recording device.
C57BL/6J mice are fed diet supplemented with Li-EPA, lithium chloride, or EPA. On Li-EPA or lithium chloride supplemented diet, mice consume, on an average, about 15.5 mg/Kg/day of elemental lithium, on a feeding schedule so as to maintain 85% of its free-feeding weight. […] On 0, 7, 14, and 21 days of starting the supplement diet, mice are injected with 0.5 mg/Kg d-amphetamine and observed for hyperlocomotion using automated video recording device.

[6] = system: C57BL/6J mice; assay: d-amphetamine induced hyperlocomotion, acute injection; assay type: in vivo; details: injected 15.5 mg/Kg elemental lithium fifteen minutes after d-amphetamine (0.5 mg/Kg), observed 120 minutes, compared with the fatty acid alone or lithium chloride
Description: C57BL/6J mice are injected with d-amphetamine (0.5 mg/Kg) and increased locomotion is measured. Fifteen minutes later, Li-DHA, or lithium chloride dose is injected to deliver 15.5 mg/Kg elemental lithium. […] Subsequently, the mice are observed for hyperlocomotion for the next 120 minutes using automated video recording device.
C57BL/6J mice are injected with d-amphetamine (0.5 mg/Kg) and increased locomotion is measured. Fifteen minutes later, Li-DHA-lysoPC, or lithium chloride dose is injected to deliver 15.5 mg/Kg elemental lithium. […] Subsequently, the mice are observed for hyperlocomotion for the next 120 minutes using automated video recording device.
C57BL/6J mice are injected with d-amphetamine (0.5 mg/Kg) and increased locomotion is measured. Fifteen minutes later, Li-EPA, or lithium chloride dose is injected to deliver 15.5 mg/Kg elemental lithium. […] Subsequently, the mice are observed for hyperlocomotion for the next 120 minutes using automated video recording device.

[7] = intravenous infusion for 5 days; cited from earlier work

In the case of `CC/C=C\C/C=C\C/C=C\C/C=C\C/C=C\C/C=C\CCC(=O)[O-].[Li+]` [Li-DHA], the “Hamilton Depression Rating scale, Beck Depression Inventory and Young Mania Rating Scale scores” value [1] is reported as “statistically significant improvement”, the immobility time [2] is reported as “reduction” and the “swimming and climbing behavior” value [2] is reported as “significant increase”. For the same molecule, the “CSF levels of lithium” value [3] was “higher”, the “Hamilton Depression Rating scale and Beck Depression Inventory scores” value [4] was “statistically significant improvement” and the induced hyperlocomotion [5] was “lower levels”. For the same molecule, the induced hyperlocomotion [6] was “lower levels”.
In the case of `CC/C=C\C/C=C\C/C=C\C/C=C\C/C=C\CCCC(=O)[O-].[Li+]` [Li-EPA], the “Hamilton Depression Rating scale, Beck Depression Inventory and Young Mania Rating Scale scores” value [1] is reported as “statistically significant improvement”, the immobility time [2] is reported as “reduction” and the “swimming and climbing behavior” value [2] is reported as “significant increase”. For the same molecule, the “CSF levels of lithium” value [3] was “higher”, the “Hamilton Depression Rating scale and Beck Depression Inventory scores” value [4] was “statistically significant improvement” and the induced hyperlocomotion [5] was “lower levels”. For the same molecule, the induced hyperlocomotion [6] was “lower levels”.
In the case of `O=S(=O)([O-])[O-].[Mg+2]` [magnesium sulfate], the “Mg levels in the brain” value [7] is listed as “failed to increase” and the “increase of blood levels of magnesium” value [7] is listed as 3 fold.
